{"source": "paper PMC4321561", "about": "“Optimization of the cyclotide framework to improve cell penetration properties” (Frontiers in Pharmacology, 2015)", "key": {"[1]": {"test": "Serum stability", "format": "in vitro ADME", "settings": "300 μM stock diluted 10 times in 100% human serum (male AB plasma), 37°C, analytical HPLC, 215 nm, triplicate; for stability in human serum (in words): 0-24 h", "description": "The stability of peptides in human serum was examined using a protocol reported previously (Chan et al., [2011]). Briefly, stock solutions of peptides (300 μM) were diluted 10 times with pre-warmed 100% human serum isolated from male AB plasma (Sigma-Aldrich) and incubated at 37°C for 0, 1, 2, 3, 5, 8, 12 and 24 h. Controls with peptides in PBS were included. The reaction was stopped by denaturing the serum proteins with urea at a final concentration of 3 M at 4°C for 10 min, followed by precipitation of serum proteins with trichloroacetic acid at a final concentration of 7% (v/v) (4°C, 10 min) and centrifugation (17,000 g, 10 min). The supernatant of each sample was recovered and run on an analytical column using a linear gradient of 5–30% solvent B (acetonitrile 90% (v/v) with 0.045% (v/v) TFA in H2O) in solvent A (0.05% (v/v) TFA in H2O) over 25 min at a flow rate of 0.3 mL/min with monitoring at 215 nm. The elution profile of each peptide was identified by the PBS sample from 0 time point. The percentage of peptide remaining in serum-treated samples was determined by comparing the height of the peptide peak obtained at each time point with that of the peptide peak obtained at 0 time point. Each experiment was done in triplicate.\nFigure 4 Serum-stability of tested peptides. Percentage of peptide remaining upon incubation with human serum. The portion of serum-treated peptide remaining was determined by calculating the height of the respective elution peak in analytical-HPLC and comparing it with control without incubation. Data points are means ± SD of three experiments."}, "[2]": {"system": "HeLa cells", "test": "Internalization of Alexa fluor 488-labeled peptides into HeLa cells (flow cytometry)", "format": "cell-based, human", "settings": "8 μM Alexa fluor 488-labeled peptide, 1 h, 37°C, medium without serum, flow cytometry, 10,000 cells, mean ± SD of three independent experiments"}}, "note": "Where a SMILES comes first, the peptide text is derived from it. Bridges are numbered along the chain shown (N, C = ends). Where no end group is shown, it is not given here."}
{"molecule": "CC[C@H](C)[C@@H]1NC(=O)[C@@H]2CSSC[C@@H]3NC(=O)[C@H](C(C)C)NC(=O)CNC(=O)CNC(=O)[C@H](CC(=O)O)NC(=O)[C@H](CO)NC(=O)CNC(=O)[C@H](CO)NC(=O)CNC(=O)[C@@H]4CSSC[C@H](NC(=O)[C@H](CC(=O)O)NC(=O)[C@H](CO)NC(=O)[C@H](CC(=O)O)NC(=O)[C@H](CCCNC(=N)N)NC(=O)[C@H](CCCNC(=N)N)NC(=O)[C@H](CSSC[C@H](NC1=O)C(=O)N[C@@H](CCCCN)C(=O)NCC(=O)N[C@@H](CC(N)=O)C(=O)NCC(=O)N[C@@H](Cc1ccc(O)cc1)C(=O)N4)NC(=O)[C@H](CCCNC(=N)N)NC(=O)[C@H](CCCNC(=N)N)NC(=O)[C@H](CCCNC(=N)N)NC(=O)[C@H](C)NC(=O)[C@H](CCCNC(=N)N)NC(=O)[C@H](CCCNC(=N)N)NC(=O)CNC(=O)[C@H](Cc1ccc(O)cc1)NC3=O)C(=O)N1CCC[C@H]1C(=O)NCC(=O)N[C@@H](C)C(=O)N2", "note": "[MCo-CTP] (cyclo(ACICKGNGYCGSGSDGGVCYGRRARRRCRRDSDCPG); disulfide 2-19, 4-28, 10-34)", "values": [{"measurement": "stability in human serum (in words)", "setting": "[1]", "result": "stable in human serum"}, {"measurement": "remaining at 12 h, 30 µM", "setting": "[1]; 12 h, peak height vs 0 time point, read-out: peptide remaining intact after 12 h incubation in serum", "result": "> 60", "unit": "%"}]}
{"molecule": "CC[C@H](C)[C@@H]1NC(=O)[C@@H]2CSSC[C@@H]3NC(=O)[C@H](C(C)C)NC(=O)CNC(=O)CNC(=O)[C@H](CC(=O)O)NC(=O)[C@H](CO)NC(=O)CNC(=O)[C@H](CO)NC(=O)CNC(=O)[C@@H]4CSSC[C@H](NC(=O)[C@H](CC(=O)O)NC(=O)[C@H](CO)NC(=O)[C@H](CC(=O)O)NC(=O)[C@H](CCCNC(=N)N)NC(=O)[C@H](CCCNC(=N)N)NC(=O)[C@H](CSSC[C@H](NC1=O)C(=O)N[C@@H](CCCCN)C(=O)NCC(=O)N[C@@H](CC(N)=O)C(=O)NCC(=O)N[C@@H](Cc1ccc(O)cc1)C(=O)N4)NC(=O)[C@H](CCCNC(=N)N)NC(=O)[C@H](CCCNC(=N)N)NC(=O)[C@H](CC(C)C)NC(=O)[C@H]([C@@H](C)CC)NC(=O)[C@H](CCCNC(=N)N)NC(=O)[C@@H]1CCCN1C3=O)C(=O)N1CCC[C@H]1C(=O)NCC(=O)N[C@@H](C)C(=O)N2", "note": "[MCo-RM1] (cyclo(ACICKGNGYCGSGSDGGVCPRILRRCRRDSDCPG); disulfide 2-19, 4-26, 10-32)", "values": [{"measurement": "stability in human serum (in words)", "setting": "[1]", "result": "stable in human serum"}]}
{"molecule": "NH2-YGRKKRRQRRRPPQG-COOH [TAT, gold standard linear cell-penetrating peptide]", "values": [{"measurement": "Fluorescence signal of HeLa cells, before trypan blue (mean fluorescence emission normalized to TAT after trypan blue)", "setting": "[2]; ex 488 nm / em 530/30 nm", "result": "1.08 ± 0.07"}, {"measurement": "Fluorescence signal of HeLa cells, after trypan blue (mean fluorescence emission normalized to TAT after trypan blue)", "setting": "[2]; trypan blue 160 μg/mL", "result": "1.00 ± 0.17"}]}
{"molecule": "YGRKARRRRRR [CTP512]", "values": [{"measurement": "time to full degradation by proteases in serum", "setting": "[1]; peak height vs 0 time point", "result": "≤ 1", "unit": "h"}]}
